Results on two compounds are retold here after US20070105810A1, “THERAPEUTICS” (priority 2003, published 2007).

The test system of data set [1] is NAADP/Ca2+ signalling in Jurkat T cells. The data set can be described thus: Ca2+ signalling evoked by microinjection of NAADP in Jurkat T cells. Format: cell-based, human. The conditions noted are these: for NAADP-mediated Ca2+ signalling: T-lymphocytes, summary statement. On the procedure: NAADP (final concentration 100 nM), IP3 (final concentration 4 μM), and BZ52 (final concentration 1 mM) were injected into single Jurkat T cells while [Ca^2+]i was analyzed by Ca^2+ imaging. Data are presented as mean±SEM (n=4 to 13).
Effect of NAADP-microinjection and co-injection with BZ52 (1 mM) on [Ca^2+]i in human Jurkat T-Lymphocytes. Upper panel: microinjection of 100 nM NAADP (arrow), middle panel: microinjection of the vehicle buffer (arrow), lower panel: co-microinjection of 100 nM NAADP plus 1 mM BZ52 (arrow).
The Jurkat T cells were loaded with fura-2/AM and kept in the dark at room temperature until use. Glass coverslips were coated first with BSA (5 mg/ml) and subsequently with poly-L-lysine (0.1 mg/ml). Small chamber slides consisting of a rubber O-ring were sealed on thin (0.1 mm) glass coverslips by silicon grease. Then, 60 μl buffer A containing 140 mM NaCl, 5 mM KCl, 1 mM MgSO4, 1 mM CaCl2, 1 mM NaH2PO4, 5.5 mM glucose, and 20 mM HEPES (pH 7.4), and 40 μl cell suspension (2*10^6 cells/ml) suspended in the same buffer were added into the small chamber and the coverslip was mounted on the stage of a fluorescence microscope (Leica DM IRE2).
Ratiometric Ca^2+ imaging was performed as described earlier. In brief, we used an Improvision imaging system (Heidelberg, Germany) built around the Leica microscope at 100-fold magnification. Illumination at 340 and 380 nm was carried out using a monochromator system (Polychromator IV, TILL Photonics, Graefelfing, Germany). Images were taken with a gray-scale CCD camera (type C4742-95-12ER; Hamamatsu, Enfield, United Kingdom; operated in 8-bit mode). The optimal relation of spatial to temporal resolution for the ratiometric measurements was obtained using a spatial resolution of 512×640 pixel, resulting in a pixel length of 129 nm/pixel (at 100-fold magnification). […]
Ratiometric Ca^2+ imaging—The cells were loaded with fura-2/AM and kept in the dark at room temperature until use. […] The coverslip with cells slightly attached to the BSA/poly-L-lysine coating was mounted on the stage of a fluorescence microscope (Leica DM IRE2). […]

In data set [2] the test system is myelin-basic protein (MBP) specific, CD4-positive rat T cell blasts. In words: In vitro toxicity assay on T cell blasts. Format: cell-based. On the procedure: Resting MBP-GFP Tcells were plated in 96-wells (5×10^4/well). Substances to test were added at different concentration to the cells and incubated for 1 h.
Cells stimulated by the addition of thymocytes (1.5×10^6/well) and MBP.
Absolute numbers of MBP-GFP T cells were determined by quantitative cytofluorometrical analysis after 24 and 48 hours (FACS-Calibur BektonDickinson).
Activated MBP-GFP Tcells were also incubated with different concentration of substances to test and absolute numbers of MBP-GFP T cells were determined by quantitative cytofluorometrical analysis after 24 and 48 hours (FACS-Calibur BektonDickinson).
Cells were stimulated in presence of MBP-pulsed irradiated APCs and increasing concentrations of BZ194. After 48 h cells were collected for cytofluorometric cell count A and RNA extraction was performed for quantitative PCR analysis (IL2) B. Effect of BZ194 on pre-activated T cell blasts C. Amplification of MBP-specific T cells which had been incubated before in the presence of DMSO or 0.5 mM or 1 mM BZ194 D.

Regarding `CCCCN(CCCC)C(=O)C[n+]1cccc(C(=O)O)c1` [BZ52, 3-Carboxy-1-dibutylcarbamoylmethyl-pyridinium], the “NAADP-mediated Ca2+ signalling” value in data set [1] is given as “efficiently inhibited”. The “effect of NAADP on Ca2+ signal (peak and plateau)” value in data set [1] (co-injection of BZ52 1 mM with NAADP 100 nM) is listed as “almost completely antagonized”. In addition, the “number of T cell blasts” value in data set [2] (BZ52 up to 500 μM, 48 h, non-proliferating cells) was “did not much reduce”.
For `CCCCCCCCNC(=O)C[n+]1cccc(C(=O)O)c1.[Br-]` [BZ194, 3-Carboxy-1-Octylcarbamoylmethyl-Pyridinium], in data set [1], the “NAADP-mediated Ca2+ signalling” value is recorded as “efficiently inhibited”. The “amplification of pre-activated MBP-specific T cells” value in data set [2] (in the presence of BZ194) is on record as “not influenced”.
